Measurements taken from publication PMC8398805, “Chemical Characterization and Anti-HIV-1 Activity Assessment of Iridoids and Flavonols from Scrophularia trifoliata” (Molecules, 2021).
Values joined by “and” are separate entries in the source; they are usually repeats but may differ in a detail not shown here. Equal values may be shown once. Read-outs that look alike come from different tables or passages of the source. Marks after values point to notes of the source that are not given here.

What was measured:
[1] = target: T1, HIV-1 IN in the presence of LEDGF/p75 (Human immunodeficiency virus type 1 group M subtype B, UniProt P04585); assay: HTRF LEDGF-dependent integrase assay; format: biochemical; details: for IC50: concentration required to inhibit IN catalytic activities, in the presence of LEDGF, by 50%; for remaining activity at 100 µM: in the presence of 100 µM compound concentration, read-out: HIV-1 IN LEDGF-dependent percentage of control
T1 construct: Recombinant 6xHis tagged IN protein was expressed and purified as described previously; 6xHis; made in house; host or cells: Escherichia coli BL21 (DE3) for IN
Description: Recombinant 6xHis tagged IN protein was expressed and purified as described previously. Briefly, IN was expressed in Escherichia coli strain BL21 (DE3). Initial purification was done using a Ni-Sepharose column with an imidazole gradient from 20 mM to 500 mM concentration in a 50 mM HEPES (pH 7.5) buffer containing 1 M NaCl, 7.5 mM CHAPS, and 2 mM β-mercaptoethanol. This was followed by a heparin column purification with a NaCl gradient from 0 to 1 M concentrations. His-LEDGF was purified by loading precipitate of cell lysate onto a heparin column and was eluted with an increasing NaCl gradient (200 mM to 1 M) in a 50 mM HEPES (pH 7.5) buffer containing 7.5 mM CHAPS and 2 mM β-mercaptoethanol. Peak fractions were pooled and loaded onto a Superdex 200 GL column and eluted in a buffer containing 50 mM HEPES (pH 7.5), 200 mM NaCl, and 2 mM β-mercaptoethanol. Fractions containing LEDGF were pooled and stored in 15% glycerol at −80 °C.
The HTRF assay allows measuring the inhibition of 3′-processing and strand-transfer IN reactions in the presence of recombinant LEDGF/p75 cellular cofactor [43]. Briefly, 50 nM IN was pre-incubated with an increasing concentration of compounds for 1 h at room temperature in reaction buffer containing 20 mM HEPES pH 7.5, 1 mM DTT, 1% Glycerol, 20 mM MgCl2, 0.05% Brij-35, and 0.1 mg/mL BSA. […] After the incubation, 4 nM of Europium-Streptavidin were added to the reaction mixture, and the HTRF signal was recorded using a Perkin Elmer Victor 3 plate reader using a 314 nm for the excitation wavelength and 668 and 620 nm for the wavelength of the acceptor and the donor substrate emission, respectively.

[2] = target: T2, HIV-1 RT-associated RNase H activity (Human immunodeficiency virus type 1 group M subtype B, UniProt P04585); assay: RNase H polymerase-independent cleavage assay; format: biochemical; details: for IC50: compound concentration required to inhibit the HIV-1 RNase H activity by 50%; for remaining activity at 100 µM: read-out: HIV-1 RNase H percentage of control
T2 construct: The 1:1 ration between the p66/p51 subunits was also verified; made in house; host or cells: E. coli strain M15 with the p6HRT-prot vector
Description: HIV-1 RT group M subtype B. Heterodimeric RT was expressed and purified essentially as previously described. Briefly, protein was expressed in E. coli strain M15 containing the p6HRT-prot vector, induced with 1.7 mM isopropyl β-D-1-thiogalactopyranoside for 4 h. Protein purification was carried out with a BioLogic LP system (Biorad), using a combination of immobilized metal affinity and ion exchange chromatography. First, crude bacterial extract was clarified by centrifugation and loaded onto a Ni^2+-NTA-Sepharose column pre-equilibrated with a loading buffer (50 mM sodium phosphate buffer pH 7.8, containing 0.3 M NaCl, 10% glycerol, and 10 mM imidazole); RT was eluted with an imidazole gradient in wash buffer (0–0.5 M). Fractions were collected and protein purity was checked by SDS-PAGE and found to be higher than 90%. The 1:1 ration between the p66/p51 subunits was also verified. Enzyme-containing fractions were pooled and diluted 1:1 with 50 mM sodium phosphate buffer pH 7.0, containing 10% glycerol, and then loaded into a Hi-trap heparin HP GE (Healthcare Lifescience) using a loading buffer (50 mM sodium phosphate buffer pH 7.0, containing 10% glycerol and 150 mM NaCl). RT was eluted with Elute Buffer 2 (50 mM Sodium Phosphate pH 7.0, 10% glycerol, 1 M NaCl). Fractions were collected and protein was dialyzed and stored in a buffer containing 50 mM Tris-HCl pH 7.0, 25 mM NaCl, 1 mM EDTA, and 50% glycerol. Catalytic activities and protein concentrations were determined. Enzyme-containing fractions were pooled and aliquots were stored at −80 °C.
HIV RT-associated RNase H activity was measured as described (using the RNase H inhibitor RDS175911 as a control.) In a 100 µL reaction volume containing 50 mM Tris-HCl buffer with pH 7.8, 6 mM MgCl2, 1 mM dithiothreitol (DTT), 80 mM KCl, 0.25 µM hybrid RNA/DNA 5′-[…]-Fluorescin-3′ (HPLC, dry, QC: Mass Check) (available from Metabion (Planegg, Germany)) 5′-Dabcyl-[…]-3′ (HPLC, dry, QC: Mass Check), there were increasing concentrations of an inhibitor, whose dilution was made in water, and 20 ng of wt RT, according to a linear range of dose-response curve. The reaction mixture was incubated for 1 h at 37 °C, stopped by the addition of EDTA, and products were measured with a multilabel counter plate reader Victor 3 (Perkin Elmer model 1420-051 (Waltham, MA, USA)) equipped with filters for 490/528 nm (excitation/emission wavelength).

[3] = tested on: HIV-1 RT; details: cited from earlier work
[4] = in the presence of 100 µM compound concentration

| Compound | IC50 [1] | remaining activity at 100 µM [1] [%] | IC50 [2] [µM] | remaining activity at 100 µM [2, 4] [%] | HIV-1 IN inhibition (in words) [1] | HIV-1 RNase H inhibition (in words) [2] | HIV-1 RT IC50 ([3]; baicalin from Scutellaria baicalensis) [µg/mL] | HIV-1 RT IC50 ([3]; kaempferol from Securigera securidaca) [µg/mL] | HIV-1 RNase H percentage of control [2, 4] |
| --- | --- | --- | --- | --- | --- | --- | --- | --- | --- |
| OC[C@H]1O[C@@H](O[C@@H]2OC=C[C@H]3[C@H](O)[C@@H]4O[C@]4(CO)[C@@H]23)[C@H](O)[C@@H](O)[C@@H]1O [Compound 1, catalpol] | > 100 µM | 100 | > 100 | 100 | – | – | – | – | – |
| OCC1=C[C@@H](O)[C@@H]2C=CO[C@@H](O[C@@H]3O[C@H](CO)[C@@H](O)[C@H](O)[C@H]3O)[C@H]12 [Compound 2, aucubin] | > 100 µM | 100 | > 100 | 100 | – | – | – | – | – |
| C[C@]1(O)C[C@@H](O)[C@@H]2C=CO[C@@H](O[C@@H]3O[C@H](CO)[C@@H](O)[C@H](O)[C@H]3O)[C@@H]21 [Compound 3, ajugol] | > 100 µM | 77 | > 100 | 100 | – | – | – | – | – |
| CO[C@H]1[C@@H]2C=CO[C@@H](O[C@@H]3O[C@H](CO)[C@@H](O)[C@H](O)[C@H]3O)[C@@H]2[C@@]2(CO)O[C@@H]12 [Compound 4, methylcatalpol] | > 100 µM | 80 | > 100 | 100 | – | – | – | – | – |
| COC1C2C=COC(OC3OC(CO)C(O)C(O)C3O)C2C2(O)COC12 (stereo not shown) [Compound 5, trifoliatoside A] | 95.5 ± 4.5 µM | – | > 100 | 93 | able to inhibit IN, selectively | – | – | – | – |
| CO[C@H]1[C@@H]2C[C@@H]3OC[C@](O)([C@H]2[C@H](O[C@@H]2O[C@H](CO)[C@@H](O)[C@H](O)[C@H]2O)O3)[C@@H]1O [Compound 6, methylscutelloside] | 100 ± 0.5 µM | – | > 100 | 100 | – | – | – | – | – |
| CC(=O)O[C@@]1(C)C[C@@H](O)C2C=CO[C@@H](O[C@@H]3O[C@H](CO)[C@@H](O)[C@H](O)[C@H]3O)C21 (stereo partly shown) [Compound 7, ajugoside] | 74 ± 3.5 µM | – | > 100 | 100 | able to inhibit IN, selectively | – | – | – | – |
| C[C@@H]1O[C@@H](OC[C@H]2O[C@@H](Oc3c(-c4ccc(O)c(O)c4)oc4cc(O)cc(O)c4c3=O)[C@H](O)[C@@H](O)[C@@H]2O)[C@H](O)[C@H](O)[C@H]1O [Compound 8, rutin] | 0.33 ± 0.04 µM | – | > 100 | 100 | submicromolar concentration | – | – | – | – |
| CC1OC(Oc2cc(O)c3c(=O)c(OC4OC(CO)C(O)C(O)C4O)c(-c4ccc(O)cc4)oc3c2)C(O)C(O)C1O (stereo not shown) [Compound 9, kaempferol-7-O-rhamnosyl-3-O-glucopyranoside] | 0.024 µM and 0.11 µM | – | > 100 | 100 | submicromolar concentration | – | – | – | – |
| O=c1c(OC2O[C@H](CO)[C@@H](O)[C@H](O)[C@H]2O)c(-c2ccc(O)cc2)oc2cc(O)cc(O)c12 (stereo partly shown) [Compound 11, kaempferol-3-O-glucopyranoside] | 0.11 µM and 0.024 µM | – | > 100 | 100 | submicromolar concentration | – | – | – | – |
| C[C@]1(OC(=O)/C=C/c2ccccc2)C[C@@H](O)C2C=CO[C@@H](O[C@@H]3O[C@H](CO)[C@@H](O)[C@H](O)[C@H]3O)C21 (stereo partly shown) [Compound 12, laterioside] | > 100 µM | 80 | > 100 | 100 | inactive | inactive | – | – | – |
| C[C@]1(OC(=O)/C=C\c2ccccc2)C[C@@H](O)C2C=CO[C@@H](O[C@@H]3O[C@H](CO)[C@@H](O)[C@H](O)[C@H]3O)C21 (stereo partly shown) [Compound 13, trifoliatoside B] | 5.96 ± 0.1 µM | – | > 100 | 92 | – | – | – | – | – |
| CCOC(=O)C(=O)CC(=O)/C=C/c1cccn1Cc1ccccc1Cl [RDS1759, reference compound] | – | – | 7.3 ± 0.1 | – | – | – | – | – | – |
| O=C(O)[C@H]1O[C@@H](Oc2cc3oc(-c4ccccc4)cc(=O)c3c(O)c2O)[C@H](O)[C@@H](O)[C@@H]1O [baicalin] | – | – | – | – | – | – | 0.2 | – | – |
| O=c1c(O)c(-c2ccc(O)cc2)oc2cc(O)cc(O)c12 [kaempferol] | – | – | – | – | – | – | – | 50 | – |
| kaempferol-3-O-rutinoside [Compound 10] | – | – | – | – | – | – | – | – | >100 (100%) ^c |
